Laboratory results taken from ChEMBL document CHEMBL4334531, “Kalshinoids A-F, Anti-inflammatory Sesquiterpenes from Kalimeris shimadae” (J Nat Prod, 2019).
Active and inactive are the calls of the source. No cut-off for these calls is given here.

Columns and labels:
THP-1 [1] = experiment: Antiinflammatory activity against human THP1 cells assessed as inhibition of LPS-induced TNFalpha production by measuring TFNalpha level at 5 uM preincubated for 4 hrs followed by LPS challenge and measured after 24 hrs incubation by ELISA; assay type: functional
THP-1 [2] = experiment: Antiinflammatory activity against human THP1 cells assessed as inhibition of LPS-induced TNFalpha production by measuring TFNalpha level at 10 uM preincubated for 4 hrs followed by LPS challenge and measured after 24 hrs incubation by ELISA; assay type: functional
THP-1 [3] = experiment: Cytotoxicity against human THP1 cells assessed as reduction in cell viability after 72 hrs by SRB assay; assay type: cell-based; conditions: THP-1, 72 h
[4] = Cytotoxicity against human THP1 cells assessed as cell viability at 40 uM after 72 hrs by SRB assay relative to control; assay type: cell-based; conditions: THP-1 cells, read-out: Activity
THP-1 [5] = experiment: Antiinflammatory activity against human THP1 cells assessed as inhibition of LPS-induced TNFalpha production preincubated for 4 hrs followed by LPS challenge and measured after 24 hrs incubation by ELISA; assay type: functional, cell-based
THP-1 [6] = experiment: Antiinflammatory activity against human THP1 cells assessed as inhibition of LPS-induced TNFalpha production at 200 uM preincubated for 4 hrs followed by LPS challenge and measured after 24 hrs incubation by ELISA; assay type: functional, cell-based

Row | Compound | Activity (THP-1 [1]) | Activity (THP-1 [2]) | IC50 (THP-1 [3]) | viability at 72 h, 40 µM [4] | inhibition (THP-1 [5]) | inhibition (THP-1 [6])
1 | COC(C)(C)C1=CC[C@@](C)(O)[C@H]2CC[C@](C)(O)[C@H]2C1 | 801.6 pg/mL | 722.2 pg/mL | > 40 µM | > 80% | Dose-dependent effect | 
2 | C[C@@H]1C[C@H]2[C@@H]3CCC4=CC(=O)C=C[C@]4(C)[C@@]3(F)[C@@H](O)C[C@]2(C)[C@@]1(O)C(=O)CO |  |  |  |  |  | Active
3 | C=C1CC[C@@H](O)[C@]2(C)CC[C@@](O)(C(C)(C)O)C[C@@H]12 | 394.3 pg/mL | 328.9 pg/mL | > 40 µM | > 80% | Dose-dependent effect | 
4 | CC(C)(O)C1=CC[C@@](C)(O)[C@H]2CC[C@@](C)(O)[C@H]2C1 | 699.2 pg/mL | 241.7 pg/mL | > 40 µM | > 80% | Dose-dependent effect | 
